According to patent publication US12029739B2, “SHP2 inhibitor and use thereof” (KANAPH THERAPEUTICS INC., priority 2021, dated 2024):

Key:
[1] = system: phospho-ERK in MIA PaCa2 or H358 cells; experiment: Phospho-ERK assay (AlphaLisa); assay type: cell-based; conditions: 1.5 h, MIA PaCa2 or H358 cells, compound incubated 1.5 hours; read-out: IC50 (p-ERK)
[2] = molecular target: T1, SHP2 (full length) (Homo sapiens, UniProt Q06124); experiment: Phosphatase assay (PTPase assay) with DiFMUP substrate; assay type: biochemical; conditions: SHP2 activated with SHP2 activating peptide; DiFMUP 80 μM, 2 hours; fluorescence; read-out: IC50 (PTPase aS say)
T1 construct: SHP2 (full length, diluted to 100 pM final concentration in reaction buffer, BPS bioscience, US); purchased BPS bioscience, US
T1 sequence (Q06124 1-593): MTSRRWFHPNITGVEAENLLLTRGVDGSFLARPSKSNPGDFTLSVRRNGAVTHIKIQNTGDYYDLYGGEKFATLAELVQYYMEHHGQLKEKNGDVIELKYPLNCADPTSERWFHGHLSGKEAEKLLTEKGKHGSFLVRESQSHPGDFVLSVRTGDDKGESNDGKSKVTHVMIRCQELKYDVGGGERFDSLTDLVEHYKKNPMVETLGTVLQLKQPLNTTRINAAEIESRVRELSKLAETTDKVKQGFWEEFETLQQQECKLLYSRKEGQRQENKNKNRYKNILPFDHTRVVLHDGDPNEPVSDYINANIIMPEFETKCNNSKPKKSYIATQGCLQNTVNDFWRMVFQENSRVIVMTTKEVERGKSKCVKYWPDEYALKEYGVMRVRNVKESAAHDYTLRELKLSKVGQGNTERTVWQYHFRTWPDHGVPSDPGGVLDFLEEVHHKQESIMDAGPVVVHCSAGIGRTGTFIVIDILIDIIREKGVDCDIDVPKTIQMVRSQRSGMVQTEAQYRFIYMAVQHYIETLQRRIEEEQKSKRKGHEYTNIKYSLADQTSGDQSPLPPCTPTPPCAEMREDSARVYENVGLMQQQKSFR

IC50 [1] [nM]	IC50 [2] [nM]	SMILES
< 45	< 3	COc1cccc(Cn2cnc3ccc(Sc4cnc(N5CCC6(CC5)CO[C@@H](C)[C@H]6N)cn4)c(Cl)c3c2=O)c1F [Example 70, 6-((5-((3S,4S)-4-amino-3-methyl-2-oxa-8-azaspiro[4.5]decan-8-yl)pyrazin-2-yl)thio)-5-chloro-3-(2-fluoro-3-methoxybenzyl)quinazolin-4(3H)-one]
45 to 1500	3 to 100	C[C@@H]1OCC2(CCN(c3cnc(Sc4ccc5ncn(CC(O)CF)c(=O)c5c4Cl)cn3)CC2)[C@@H]1N (stereo partly drawn) [Example 76, 6-((5-((3S,4S)-4-amino-3-methyl-2-oxa-8-azaspiro[4.5]decan-8-yl)pyrazin-2-yl)thio)-5-chloro-3-(3-fluoro-2-hydroxypropyl)quinazolin-4(3H)-one]
< 45	< 3	C[C@@H]1OCC2(CCN(c3cnc(Sc4ccc5nc(OC6CCOC6)n(C)c5c4Cl)cn3)CC2)[C@@H]1N (stereo partly drawn) [Example 129, (3S,4S)-8-(5-((7-chloro-1-methyl-2-((tetrahydrofuran-3-yl)oxy)-1H-benzo[d]imidazol-6-yl)thio)pyrazin-2-yl)-3-methyl-2-oxa-8-azaspiro[4.5]decan-4-amine]
> 1500	> 100	Cn1c(N2CCCN(CCN)CC2)nc(N)c(Sc2cccc(Cl)c2Cl)c1=O [Example 200, 6-amino-2-(4-(2-aminoethyl)-1,4-diazepan-1-yl)-5-((2,3-dichlorophenyl)thio)-3-methylpyrimidin-4(3H)-one]
